The assay relates to Mus musculus. Briefly: Antiinflammatory activity against mouse assessed as inhibition TPA-induced ear edema at 0.5 mg/kg. The class given is functional. The arrangement: scale not given: the % may be the effect or the level left.
In the case of `C=C1CC[C@@H](O)[C@]2(C)CC[C@@H](C(C)C)[C@@H](O)[C@@H]12`, the Activity stood at 29.9%. On to `CC1=CC[C@@H](O)[C@]2(C)CC[C@H](C(C)C)[C@H](O)[C@@H]12`, for which the Activity was 28%. Take `C=C1CC[C@@H]2[C@H]([C@H]3[C@H]1CC[C@]3(C)O)C2(C)C` [SPATHULENOL]: the Activity is 31.5%.
